# Measured values published in patent publication US20160137746A1, “METHODS FOR TREATING HIGH CARDIOVASCULAR RISK PATIENTS WITH HYPERCHOLESTEROLEMIA” (Sanofi Biotechnology, priority 2014, published 2016).
# Tested on: high cardiovascular risk patients with hypercholesterolemia
# Experiment: ODYSSEY COMBO I: lipid efficacy of alirocumab vs placebo, add-on to maximally tolerated statin, 52 weeks
# Assay type: in vivo, human
# Text: Each of the COMBO studies was randomized, double-blinded, and placebo-controlled.
# The primary efficacy endpoint for each study was the difference between treatment arms in the percent change in LDL-C from baseline to Week 24.
# Apo, apolipoprotein; HDL-C, high-density lipoprotein cholesterol; ITT, intent-to-treat; LDL-C, low-density lipoprotein cholesterol; Lp(a), lipoprotein (a); TG, triglycerides.
# COMBO I was a Phase 3, randomized, double-blind, placebo-controlled, parallel-group, multicenter, 52-week study.
# After randomization, patients entered a double-blind treatment period of 52 weeks. […] Patients randomized to placebo received a 1 ml SC placebo injection from an identical auto-injector.
# To maintain blinding, the patient and investigator were not informed of the Week 8 LDL-C levels (or any lipid values after randomization); continuation or up-titration of dose occurred in an automated and blinded manner.
# Primary analyses of efficacy endpoints were conducted using an ITT approach (based on the ITT population defined above), including all lipid data, regardless of whether the patient was continuing therapy or not. This corresponds to ITT estimands, defined for primary and key secondary endpoints. In addition, analyses were also conducted using an on-treatment approach (based on the mITT population defined above), including lipid data collected during the efficacy treatment period. This corresponds to on-treatment estimands of key secondary endpoints.
# With regards to the primary efficacy analysis (ITT approach), the percent change in calculated LDL-C from baseline to Week 24 was analyzed using a mixed-effect model with repeated measures (MMRM) approach. All post-baseline data available from Week 4 to Week 52 analysis windows were used and missing data were accounted for by the MMRM.
# [1] = ITT, Week 24, listed as alirocumab
substance,measurement,setting,value
"Alirocumab: human anti-PCSK9 antibody; HCVR SEQ ID NO:1, LCVR SEQ ID NO:6; CDRs SEQ ID NOs 2/3/4/7/8/10",Patients with automatic up-titration at Week 12 from 75 mg Q2W to 150 mg Q2W (Week 8 LDL-C ≧70 mg/dL),32 of 191 patients with at least one injection after Week 12,16.8%
same,Patients who reached LDL-C <70 mg/dL despite baseline LDL-C >190 mg/dL,'Combo I: Overall Results' paragraph,32%
same,"Calculated LDL-C change from baseline, LS mean","ITT, Week 4",-1.308 mmol/L
same,"Calculated LDL-C change from baseline, LS mean (SE)","ITT, Week 4",−50.5 (1.7) mg/dL
same,"Calculated LDL-C value, LS mean","ITT, Week 4",1.327 mmol/L
same,"Calculated LDL-C value, LS mean (SE)","ITT, Week 4",51.2 (1.7) mg/dL
same,"Calculated LDL-C, LS mean (SE) percent change from baseline","ITT, Week 4",−50.6 (1.7) %
same,"Calculated LDL-C change from baseline, LS mean","ITT, Week 8",-1.372 mmol/L
same,"Calculated LDL-C change from baseline, LS mean (SE)","ITT, Week 8",−53.0 (1.7) mg/dL
same,"Calculated LDL-C value, LS mean","ITT, Week 8",1.264 mmol/L
same,"Calculated LDL-C value, LS mean (SE)","ITT, Week 8",48.8 (1.7) mg/dL
same,"Calculated LDL-C, LS mean (SE) percent change from baseline","ITT, Week 8",−51.6 (1.7) %
same,"Apo-B percent change, LS mean difference vs placebo","ITT, Week 12",placebo of −38.2%
same,"Calculated LDL-C change from baseline, LS mean","ITT, Week 12",-1.207 mmol/L
same,"Calculated LDL-C change from baseline, LS mean (SE)","ITT, Week 12",−46.6 (2.0) mg/dL
same,"Calculated LDL-C percent change, LS mean difference vs placebo","ITT, Week 12",placebo of −47.4%
same,"Calculated LDL-C value, LS mean","ITT, Week 12",1.428 mmol/L
same,"Calculated LDL-C value, LS mean (SE)","ITT, Week 12",55.1 (2.0) mg/dL
same,"Non-HDL-C percent change, LS mean difference vs placebo","ITT, Week 12",placebo of −40.1%
same,"Total-C percent change, LS mean difference vs placebo","ITT, Week 12",placebo of −26.4%
same,"Calculated LDL-C, LS mean (SE) percent change from baseline","ITT, Week 12 (before possible up-titration)",−46.3 (1.8) %
same,"Calculated LDL-C, LS mean (SE) percent change from baseline","ITT, Week 12 (before possible up-titration), listed as alirocumab",−46.3%
same,"Calculated LDL-C percent change, LS mean difference vs placebo","ITT, Week 12, listed as alirocumab",−47.4%
same,"Calculated LDL-C change from baseline, LS mean","ITT, Week 16",-1.345 mmol/L
same,"Calculated LDL-C change from baseline, LS mean (SE)","ITT, Week 16",−51.9 (1.9) mg/dL
same,"Calculated LDL-C value, LS mean","ITT, Week 16",1.291 mmol/L
same,"Calculated LDL-C value, LS mean (SE)","ITT, Week 16",49.8 (1.9) mg/dL
same,"Calculated LDL-C, LS mean (SE) percent change from baseline","ITT, Week 16",−50.5 (1.9) %
same,"Apo-B percent change, LS mean difference vs placebo","ITT, Week 24",placebo of −35.8%
same,"Calculated LDL-C change from baseline, LS mean","ITT, Week 24",-1.303 mmol/L
same,"Calculated LDL-C change from baseline, LS mean (SE)","ITT, Week 24",−50.3 (2.0) mg/dL
same,"Calculated LDL-C percent change, LS mean difference (SE) vs placebo","ITT, Week 24",−45.9 (3.3) %
same,"Calculated LDL-C value, LS mean","ITT, Week 24",1.332 mmol/L
same,"Calculated LDL-C value, LS mean (SE)","ITT, Week 24",51.4 (2.0) mg/dL
same,"Calculated LDL-C, LS mean (SE) percent change from baseline","ITT, Week 24",−48.2 (1.9) %
same,"Calculated LDL-C, LS mean difference (SE) vs placebo, pattern-mixture-model sensitivity analysis","ITT, Week 24",−42.7 (3.7) %
same,"HDL-C percent change, LS mean difference vs placebo","ITT, Week 24",placebo of 7.3%
same,"Lp(a) percent change, combined estimate for adjusted mean difference vs placebo","ITT, Week 24",vs. placebo of −14.6%
same,"Non-HDL-C percent change, LS mean difference vs placebo","ITT, Week 24",placebo of −37.5%
same,"Total-C percent change, LS mean difference vs placebo","ITT, Week 24",placebo of −25%
same,"Calculated LDL-C percent change, LS mean difference (SE) vs placebo",[1],−45.9%
same,"Calculated LDL-C, LS mean (SE) percent change from baseline",[1],−48.2%
same,"Fasting TGs percent change, combined estimate for adjusted mean difference vs placebo","ITT, Week 24, not statistically significant (p 0.7597)",vs. placebo of −1.2%
same,"Calculated LDL-C change from baseline, LS mean","ITT, Week 36",-1.225 mmol/L
same,"Calculated LDL-C change from baseline, LS mean (SE)","ITT, Week 36",−47.3 (2.2) mg/dL
same,"Calculated LDL-C value, LS mean","ITT, Week 36",1.411 mmol/L
same,"Calculated LDL-C value, LS mean (SE)","ITT, Week 36",54.5 (2.2) mg/dL
same,"Calculated LDL-C, LS mean (SE) percent change from baseline","ITT, Week 36",−44.8 (2.5) %
same,"Calculated LDL-C change from baseline, LS mean","ITT, Week 52",-1.153 mmol/L
same,"Calculated LDL-C change from baseline, LS mean (SE)","ITT, Week 52",−44.5 (2.4) mg/dL
same,"Calculated LDL-C percent change, LS mean difference vs placebo","ITT, Week 52",placebo of −43%
same,"Calculated LDL-C value, LS mean","ITT, Week 52",1.483 mmol/L
same,"Calculated LDL-C value, LS mean (SE)","ITT, Week 52",57.2 (2.4) mg/dL
same,"Calculated LDL-C, LS mean (SE) percent change from baseline","ITT, Week 52",−42.5 (2.5) %
same,"Calculated LDL-C, LS mean (SE) percent change from baseline","ITT, Week 52, listed as alirocumab",−42.5%
same,"Calculated LDL-C percent change, LS mean difference vs placebo","On-treatment, Week 12",placebo of −49.3%
